Laboratory results taken from ChEMBL document CHEMBL1201862, “PubChem BioAssay data set” (2004).
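Where inhibition never reached the appropriate level, the endpoint shown equals the highest concentration tested. Otherwise, values were interpolated linearly from a five-concentration, 48-hour dose response in 96-well plates. At the GI50, growth is halved.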 Active and inactive are the calls of the source. Rule as the data show it: active = GI50 up to about 1.1 µM and inactive = higher.

Tests used:
Experiment in all cases: NCI tumour cell line growth inhibition, 48 h
[1] = tested on: SNB-75
[2] = tested on: K562
[3] = tested on: NCI-H522
[4] = tested on: UACC-62
[5] = tested on: ACHN
[6] = tested on: 786-0
[7] = tested on: UO-31
[8] = tested on: HOP-62
[9] = tested on: IGROV-1
[10] = tested on: OVCAR-4
[11] = tested on: MDA-MB-231
[12] = tested on: KM12
[13] = tested on: HCT-116
[14] = tested on: SNB-19
[15] = tested on: T47D
[16] = tested on: COLO 205
[17] = tested on: OVCAR-3
[18] = tested on: SF-268
[19] = tested on: HOP-92

Measured: GI50

O=C(Nc1ccc(Cl)cc1)NS(=O)(=O)c1coc2cc(F)ccc2c1=O
inactive: [1] > 100 µM | [2] 19.7 µM | [3] 67.9 µM | [4] 26.2 µM | [5] 16.4 µM | [6] > 100 µM | [7] 86.3 µM | [8] > 100 µM | [9] > 100 µM | [10] > 100 µM | [11] > 100 µM | [12] 92 µM | [13] > 10 µM | [14] > 100 µM | [15] > 100 µM | [16] > 100 µM | [17] > 100 µM | [18] > 100 µM

CCc1nn(CN2CCOCC2)c(=S)n1/N=C/c1ccc(-c2ccc(Cl)cc2)o1
inactive: [1] 50.8 µM | [2] > 100 µM | [3] > 100 µM | [5] > 100 µM | [6] > 100 µM | [7] > 100 µM | [8] > 100 µM | [9] > 100 µM | [19] > 100 µM | [10] > 100 µM | [11] > 100 µM | [12] > 100 µM | [13] > 100 µM | [15] > 100 µM | [17] > 100 µM | [18] > 100 µM

COC(=O)N[C@H](C(=O)O)C(C)O[Si](C)(C)C(C)(C)C (stereo partly specified)
inactive: [2] > 100 µM | [3] > 100 µM | [4] > 100 µM | [5] > 100 µM | [6] > 100 µM | [7] > 100 µM | [8] > 100 µM | [9] > 100 µM | [10] > 100 µM | [11] > 100 µM | [12] > 100 µM | [13] > 100 µM | [14] > 100 µM | [15] > 100 µM | [16] > 100 µM | [17] 7.08 µM | [18] > 100 µM

CN(C)CCNc1ncnc2[nH]c(-c3ccc4ccccc4c3)nc12
inactive: [2] > 100 µM | [3] > 100 µM | [4] > 100 µM | [5] > 100 µM | [6] > 100 µM | [7] > 100 µM | [8] > 100 µM | [9] > 100 µM | [10] > 100 µM | [11] > 100 µM | [12] > 100 µM | [13] > 100 µM | [14] > 100 µM | [15] > 100 µM | [16] > 100 µM | [17] > 100 µM | [18] > 100 µM

O=C1C(=Cc2ccccc2O)N=C(c2ccccc2)N1n1c(-c2ccccc2)nc2ccccc2c1=O
inactive: [1] 23.4 µM | [2] 29.6 µM | [3] 33.1 µM | [4] 33.7 µM | [5] 29.5 µM | [6] 42.1 µM | [7] 27.5 µM | [8] 31.3 µM | [9] 34.4 µM | [11] 42.2 µM | [12] 30.3 µM | [13] 32.3 µM | [14] 48 µM | [15] 26.2 µM | [16] 35.7 µM | [18] 21.3 µM

c1ccc(-c2cc(-c3cc(-c4ccccc4)n(-c4ccccc4)n3)nn2-c2ccccc2)cc1
inactive: [1] 56.9 µM | [2] > 100 µM | [3] > 100 µM | [4] > 100 µM | [5] > 100 µM | [6] 78.5 µM | [7] > 100 µM | [8] 35.7 µM | [9] > 100 µM | [10] 94.8 µM | [11] > 100 µM | [12] > 100 µM | [13] > 100 µM | [14] > 100 µM | [15] > 100 µM | [16] > 100 µM | [17] > 100 µM | [18] > 100 µM

CC1=NC(=Cc2ccc(Cl)cc2)C(=O)N1n1c(-c2ccccc2)nc2ccccc2c1=O
inactive: [1] 38.6 µM | [2] 34.8 µM | [3] 6.92 µM | [4] 33.2 µM | [5] 22.2 µM | [6] 40.6 µM | [7] 37.2 µM | [8] 47.2 µM | [9] 31.6 µM | [11] 49.7 µM | [12] 36.4 µM | [13] 34.8 µM | [14] 48.6 µM | [15] 25.4 µM | [16] 32.4 µM | [18] 51.9 µM

O=C(O)CCC1C(=O)C2CCN1CC2 (stereo unspecified)
inactive: [1] > 100 µM | [2] > 100 µM | [3] > 100 µM | [4] > 100 µM | [5] > 100 µM | [6] > 100 µM | [7] > 100 µM | [8] > 100 µM | [9] > 100 µM | [10] > 100 µM | [11] > 100 µM | [12] > 100 µM | [13] > 100 µM | [14] > 100 µM | [15] > 100 µM | [16] > 100 µM | [17] > 100 µM | [18] > 100 µM

O=C1CC2c3ccccc3CCC2c2ccccc21 (stereo unspecified)
inactive: [1] 38.2 µM | [2] 6.32 µM | [3] 23.3 µM | [4] 20 µM | [5] 28.2 µM | [6] 31.3 µM | [7] 15.2 µM | [8] 25.9 µM | [9] 26.3 µM | [10] > 10 µM | [11] 20.5 µM | [12] 9.35 µM | [13] 11.1 µM | [14] 15.1 µM | [15] 42.9 µM | [16] 2.93 µM | [17] 13.3 µM | [18] 27.5 µM

COC(=O)CC(C)(N[S+]([O-])c1ccc(C)cc1)c1ccccc1 (stereo unspecified)
inactive: [2] > 100 µM | [3] > 100 µM | [4] > 100 µM | [5] > 100 µM | [6] > 100 µM | [7] > 100 µM | [8] > 100 µM | [9] > 100 µM | [19] > 100 µM | [10] > 100 µM | [11] > 100 µM | [12] > 100 µM | [13] > 100 µM | [14] > 100 µM | [15] > 100 µM | [16] > 100 µM | [17] > 100 µM | [18] > 100 µM

N#C/C(C(=S)NCc1ccccc1)=C(/N)N1CCCC1
inactive: [2] > 100 µM | [3] > 100 µM | [4] > 100 µM | [5] > 100 µM | [6] > 100 µM | [7] > 100 µM | [8] > 100 µM | [9] > 100 µM | [19] 44.9 µM | [10] > 100 µM | [11] > 100 µM | [12] > 100 µM | [13] > 100 µM | [14] > 100 µM | [15] 25.1 µM | [16] > 100 µM | [17] > 100 µM | [18] > 100 µM

O=C1C[C@H](CCC(=O)OCc2ccccc2)NC(=O)C[C@H](CCC(=O)OCc2ccccc2)NC(=O)C[C@H](CCC(=O)OCc2ccccc2)N1
inactive: [1] 2.22 µM | [2] > 100 µM | [3] > 100 µM | [4] 88.9 µM | [5] 17.1 µM | [6] 8.15 µM | [7] > 100 µM | [8] 16.2 µM | [9] 50.2 µM | [19] 3.92 µM | [10] > 100 µM | [11] 14.2 µM | [12] > 100 µM | [13] 26.2 µM | [14] 9.98 µM | [15] 44.3 µM | [16] > 100 µM | [17] 97.1 µM

CCCCOC(=O)Nc1ccc(S(=O)(=O)Nc2c(Cl)cccc2Cl)cc1
inactive: [2] 19.6 µM | [3] 42.1 µM | [4] 21.2 µM | [5] 30.2 µM | [6] 31.3 µM | [7] 25.6 µM | [8] 49 µM | [9] 30.4 µM | [19] 24.2 µM | [10] 12.1 µM | [11] 25.1 µM | [12] 36.1 µM | [13] 26.5 µM | [14] 39.7 µM | [15] 25.7 µM | [16] 16.1 µM | [17] 26.3 µM | [18] 36.6 µM

COc1cc2c(cc1C)NC(=O)/C2=C/c1c(Cl)n(-c2ccccc2)c2ccccc12
inactive: [1] 65 µM | [2] 6.46 µM | [3] 11.4 µM | [4] 19.3 µM | [5] 12.7 µM | [6] 15.3 µM | [7] 49.2 µM | [8] 19.4 µM | [9] 34.4 µM | [19] 23 µM | [11] 8.69 µM | [12] 7.31 µM | [13] 13.4 µM | [14] 45.7 µM | [15] 4.54 µM | [16] 5.86 µM | [17] 7.91 µM | [18] 20.6 µM

COc1ccc2c(c1)c1c(n2CCN2CCOCC2)-c2cccc(OC)c2CC1
inactive: [2] 17.3 µM | [3] 20.2 µM | [4] 29.6 µM | [5] 37 µM | [6] 30.4 µM | [7] 18.6 µM | [8] 45.6 µM | [9] 43.1 µM | [19] 45.8 µM | [10] > 100 µM | [11] 27.6 µM | [12] 20.4 µM | [13] 33.7 µM | [15] 59 µM | [16] 15.2 µM | [17] 52.7 µM | [18] > 100 µM
